The values that follow come from patent publication US11162117B2, “Whole-cell catalytic system and applications thereof” (National Taiwan University, priority 2018, dated 2021).

Common to all, as to assay type: cell-based, Marinobacter aquaeoli VT8
Data set [1] relates to AlkR protein. Put plainly: Alkane induction assay: mRFP reporter in E. coli JM109 carrying psb4K5-alkR-mRFP plasmid (flow cytometry). How it is done:
(§1) E. coli JM109 carrying the psb4K5-alkR-mRFP plasmid was cultured overnight at 37° C. and 125-150 rpm in 3 mL of LB medium containing 50 μg/mL kanamycin. The overnight culture was diluted 1000-fold in LB medium in a 100 mL Hinton's flask and cultured at 37° C. To induce the expression of red fluorescent protein, 1% (v/v) of the various indicated hydrocarbons was added to the culture when the absorbance at 600 nm (O.D.600) reached about 0.6. At 0, 3, 6, 9, and 12 hours after the induction, 500 μL of the abovementioned bacterial culture was collected and centrifuged to obtain a cell pellet, which was washed twice and resuspended with phosphate buffer saline (PBS). Flow cytometry (BD FACSCanto II) was used to measure the mean fluorescence intensity of the cells and the distribution of cells with different fluorescence intensities (an excitation wavelength at 532 nm and an emission wavelength at 588 nm). For the E. coli JM109 that additionally carrying an expression vector of an alkane transporter, rhamnose was first added to the bacterial culture at an O.D.600 of about 0.6, and 1% (v/v) of the various indicated hydrocarbons was added three hours thereafter.
First, E. coli JM109 was transformed with the psb4K5-alkR-mRFP plasmid shown in FIG. 1, which was a reporter plasmid including the alkR gene, the gene encoding the red fluorescent protein, and the promoter thereof. […] At 0, 3, 6, 9, and 12 hours after the induction, the mean fluorescence intensity and fluorescence distribution of E. coli cells were measured by flow cytometry. […]
It was also studied whether the medium-chain or long-chain alkane terminal oxidation products would inhibit the activating effect of the AlkR protein on gene expression. In the alkane induction assay using n-dodecane as the inducer, 0.1% (v/v) or 1% (v/v) 1-dodecanol was additionally added to the E. coli culture, and the mean fluorescence intensity of the E. coli cells was measured at 6 and 12 hours after the induction, with the results shown in FIG. 10.
(Flow cytometry measures light scatter and fluorescence of single cells or particles in a stream.)

In data set [2] the test system is AlkR protein. Put plainly: Alkane induction assay in E. coli JM109 carrying psb4K5-alkR-mRFP and rhamnose-inducible psb3C5-rha-weak alkL (or mock psb3C5-rha) plasmid. The conditions noted are these: for expression of red fluorescent protein (mean fluorescence intensity) compared to no rhamnose addition: AlkL plasmid, 0.01% (w/v) rhamnose then 1% (v/v) n-tetradecane, 6 h after induction, FIG. 14. The procedure: as §1
This characteristic might prevent the recombinant microorganism including the CYP153A operon from being induced by the medium-chain or long-chain alkanes or medium-chain or long-chain fatty acid methyl esters and producing the medium-chain or long-chain alkane terminal oxidation products. In order to promote the entry of medium-chain or long-chain alkanes into cells, the recombinant microorganism of the present invention may further express an alkane transporter. The AlkL protein of P. putida GPol is an exemplary alkane transporter used in this example to investigate the effects of alkane transporter expression on the uptake of medium-chain or long-chain alkanes or medium-chain or long-chain fatty acid methyl esters by the recombinant microorganisms. The AlkL protein is cytotoxic and its expression should be tightly regulated. […] At 6 hours after the induction, the mean fluorescence intensity of E. coli cells was measured by flow cytometry.
The AlkL protein was also tested for the ability to promote the uptake of various medium-chain or long-chain alkanes and methyl laurate by microbial cells. […] After 3 hours of incubation, 1% (v/v) n-octane, n-decane, n-dodecane, n-tetradecane, n-hexadecane, n-octadecane, or methyl laurate was added to induce the expression of red fluorescent protein, and the mean fluorescence intensity and fluorescence distribution of E. coli cells were measured by flow cytometry 6 hours after the induction. […]

For data set [3], the system named is CYP153A operon. The experiment in a line: CYP153A expression in recombinant E. coli carrying pBBR1-CYPLR plasmid (SDS-PAGE, CO difference spectroscopy). The following applies: 1% (v/v) methyl laurate, pBBR1-CYPLR vs pBBR1-alkR plasmid. How it is done: E. coli JM109 carrying the pBBR1-CYPLR plasmid or the pBBR1-alkR plasmid was overnight cultured at 37° C. and 125-150 rpm in 3 mL of LB medium containing 50 μg/mL kanamycin. The overnight culture was diluted 1000-fold in 3 mL of LB medium containing 50 μg/mL kanamycin and cultured at 37° C. 1% (v/v) methyl laurate was added to the culture at an O.D.600 of about 0.6 and a further incubation at 30° C. was carried out for 12 hours. The cell pellet obtained by centrifuging the abovementioned bacterial culture was washed and resuspended with PBS, and then subjected to protein expression analysis by sodium dodecyl sulfate polyacrylamide gel electrophoresis (SDS-PAGE) or carbon monoxide (CO) difference spectroscopy.
Samples of bacterial cells were mixed with sample buffer (50 mM Tris-HCl, pH 6.8, 100 mM dithiothreitol (DTT), 2% SDS, 0.1% bromophenol blue, 10% glycerol) and boiled for 10 minutes. […]
It was studied whether CYP153A expression in the recombinant E. coli carrying the reconstructed CYP153A operon from M. aquaeoli VT8 would be induced by medium-chain or long-chain fatty acid methyl esters. […] At 12 hours after the induction, the expression of CYP153A was analyzed by SDS-PAGE, and the protein molecular size and activity of the cytochrome P450 consisting of CYP153A, ferredoxin, and ferredoxin reductase were verified by carbon monoxide difference spectroscopy.

In data set [4] the test system is CYP153A operon. The experiment in a line: n-Octane-induced 1-octanol production by recombinant E. coli carrying pBBR1-CYPLR plasmid (gas chromatography). The conditions noted are these: 1% (v/v) n-octane; 12 h after induction; pBBR1-CYPLR vs pBBR1-alkR plasmid; FIG. 13. The procedure:
The medium-chain or long-chain alkane terminal oxidation product in the sample was analyzed qualitatively and quantitatively by gas chromatography. The analysis of alkanols and alkanediols was described as follows, with 1-octanol taken as example. 10 mg of 1,8-octanediol was added as an internal standard to 10 mL of the collected bacterial culture, and the mixture was extracted twice with double volumes of ethyl acetate. […] The obtained product was analyzed for composition by Varian CP-3800 gas chromatograph equipped with a DB-5 column and a flame ionization detector (FID). […] Alkanoic acids, alkanedioic acids, or alcohol acids were analyzed similarly as described above. In one embodiment of the present invention, 12-hydroxydodecanoic acid was analyzed using dodecanol as the internal standard.
It was studied whether the recombinant E. coli carrying the reconstructed CYP153A operon from M. aquaeoli VT8 would be induced to express the cytochrome P450 with oxidative activity and produce medium-chain or long-chain alkane terminal oxidation products in response to medium-chain or long-chain alkanes. […] At 12 hours after the induction, the production of 1-octanol in the bacterial culture was analyzed by gas chromatography.

For `CCCCCCCCCCCCO` [1-dodecanol], in the data set on AlkR protein [1] (0.1% or 1% (v/v) 1-dodecanol added with 1% n-dodecane inducer, 6 and 12 h, FIG. 10), the “inhibition of n-dodecane-induced red fluorescent protein expression” value was “did not inhibit the expression of red fluorescent protein”.

Turning to `CCCCCCCCCCCC(=O)OC` [methyl laurate], the “expression of red fluorescent protein (mean fluorescence intensity) relative to control group” value with AlkR protein [1] (1% (v/v) inducer, 0-12 h, recombinant E. coli JM109, vs untreated control, FIG. 8) is on record as “induced the expression of red fluorescent protein”. Besides, in the data set on AlkR protein [2] (psb3C5-rha mock vector, 0.01% rhamnose 3 h then 1% (v/v) inducer 6 h, FIG. 15), the “expression of red fluorescent protein in control groups (mock vector) vs non-induced groups” value was “induce significantly more expression of the red fluorescent protein”. The “whole-cell carbon monoxide difference spectrum (400-500 nm)” value in the data set on CYP153A operon [3] (12 h, FIGS. 12A-12B) is reported as “absorption peak at about 450 nm”. The “CYP153A expression by SDS-PAGE” value in the data set on CYP153A operon [3] (12 h after induction, FIG. 11) is recorded as “expressed the CYP153A”.

Regarding `CCCCCCCCCCCCCC` [n-tetradecane], the “expression of red fluorescent protein (mean fluorescence intensity) compared to no rhamnose addition” value in the data set with AlkR protein [2] is on record as “induced significantly more expression of the red fluorescent protein”. Further, in the data set on AlkR protein [2] (psb3C5-rha-weak alkL plasmid, 0.01% rhamnose 3 h then 1% (v/v) alkane 6 h, FIG. 15), the “expression of red fluorescent protein in E. coli cells expressing both AlkL and AlkR proteins vs control groups” value is listed as “more effective in inducing the expression of red fluorescent protein”.

Regarding `C[C@H](O)[C@H](O)[C@@H](O)[C@@H](O)C=O` [rhamnose, reference compound], in the data set on AlkR protein [2], the “expression of red fluorescent protein (mean fluorescence intensity) compared to no rhamnose addition” value is recorded as “induced significantly more expression of the red fluorescent protein”.

As for `CCCCCCCC` [n-octane], in the data set on CYP153A operon [4], the “induction of cytochrome P450 with oxidative activity (1-octanol production, gas chromatogram)” value is “additional peak at the retention time of 1-octanol”. Further, the “number of E. coli cells induced to express red fluorescent protein (fluorescence distribution histograms)” value in the data set with AlkR protein [1] (1% (v/v) alkane, 0 vs 6 h after induction, FIGS. 9A-9F) was “more E. coli cells were induced to express the red fluorescent protein”.
